Measurements reported in patent publication US11008290B2, “Halogenated quinoline derivatives as antimicrobial agents” (University of Florida Research Foundation, Incorporated, priority 2015, dated 2021).
In brackets after ≈: the same amount, converted by molar mass. Where two headings read alike, the source gives them in different places.

What was measured:
[1] = tested on: methicillin-resistant Staphylococcus aureus-2 (MRSA-2; clinical isolate); assay: Minimum inhibitory concentration (MIC) susceptibility assay, broth microdilution; type: cell-based; conditions: Staphylococcus, MRSA
Method: (§1) The minimum inhibitory concentration (MIC) for each compound was determined by the broth microdilution method as recommended by the Clinical and Laboratory Standards Institute (CLSI). In a 96-well plate, eleven two-fold serial dilutions of each compound were made in a final volume of 100 μL Luria Broth. Each well was inoculated with ˜10^5 bacterial cells at the initial time of incubation, prepared from a fresh log phase culture (OD600 of 0.5 to 1.0 depending on bacterial strain). […] The concentration range tested for each compound during this study was 0.10 to 100 μM. DMSO served as the vehicle and negative control in each microdilution MIC assay. DMSO was serially diluted with a top concentration of 1% v/v. Bacterial strains used: methicillin-resistant Staphylococcus aureus-2 (MRSA-2; clinical isolate from Shands Hospital in Gainesville, Fla.), methicillin-resistant Staphylococcus epidermidis (MRSE; ATCC 35984), vancomycin-resistant Enterococcus faecium (VRE, ATCC 700221).

[2] = tested on: vancomycin-resistant Enterococcus faecium (VRE, ATCC 700221); assay: as above; type: cell-based; conditions: read-out: VRE MIC
Method: as §1

[3] = tested on: MRSA BAA-1707; assay: Calgary Biofilm Device (CBD) MBC/MBEC determination; type: cell-based, Staphylococcus aureus; conditions: Table 4, CBD; for MBC: Staphylococcus aureus, planktonic killing, first value of cell, read-out: MRSA BAA-1707 MBC
Method: (§2) Biofilm eradication experiments were performed using the Calgary Biofilm Device to determine MBC/MBEC values for various compounds of interest (Innovotech, product code: 19111). The Calgary device (96-well plate with lid containing 96 total pegs to establish biofilms; 1 peg/well) was inoculated with 125 μL of a mid-log phase culture diluted 1,000-fold in tryptic soy broth with 0.5% glucose (TSBG) to establish bacterial biofilms after incubation at 37° C. for 24 hours. The lid of the Calgary device was then removed, washed and transferred to another 96-well plate containing 2-fold serial dilutions of the test compounds (the “challenge plate”). The total volume of media with compound in each well in the challenge plate was 150 μL. The Calgary device was then incubated at 37° C. for 24 hours. The lid was then removed from the challenge plate and MBC/MBEC values were determined using different final assays. […] The MBC values were determined as the concentration giving a lack of visible bacterial growth (e.g., turbidity). For determination of MBEC values, the Calgary device lid (with attached pegs/treated biofilms) was transferred to a new 96-well plate containing 150 μL of fresh TSBG media in each well and incubated for 24 hours at 37° C. to allow viable biofilms to grow and disperse resulting in turbidity after the incubation period. […] In select experiments, treated pegs from the Calgary device were removed from lead biofilm eradicators after final incubation, sonicated for 30 minutes in PBS and plated out to determine biofilm cell killing (e.g., colony forming unit per milliliter, CFU/mL).

[4] = tested on: MRSA-2 planktonic cells and biofilms; assay: as above; type: cell-based, Staphylococcus aureus; conditions: CBD; for MBC: planktonic killing, first value of MBC/MBEC cell
Method: as §2

[5] = tested on: MRSE (ATCC 35984) planktonic cells and biofilms; assay: as above; type: cell-based, Staphylococcus epidermidis; conditions: Staphylococcus epidermidis, planktonic killing, CBD, first value of cell
Method: as §2

[6] = tested on: human red blood cells; assay: Hemolysis assay; type: cell-based; conditions: human, 1 h, pH 7.2
Method: Freshly drawn human red blood cells (hRBC with ethylenediaminetetraacetic acid (EDTA) as an anticoagulant) were washed with Tris-buffered saline (0.01M Tris-base, 0.155M sodium chloride (NaCl), pH 7.2) and centrifuged for 5 minutes at 3500 rpm. The washing was repeated three times with the buffer. In 96-well plate, the test compounds were added to the buffer. […] The plate was then incubated for 1 hour at 37° C. After incubation, the plate is centrifuged for 5 minutes at 3500 rpm. Then 80 μL of the supernatant were transferred to another 96-well plate and the Optical Density (OD) was read at 405 nm. […] The percent of hemolysis was calculated as (OD405 of the compound-OD405 DMSO)/(OD405 Triton X-OD405 buffer).

[7] = tested on: VRE (ATCC 700221) planktonic cells and biofilms; assay: Calgary Biofilm Device (CBD) MBC/MBEC determination; type: cell-based, Enterococcus faecium; conditions: Enterococcus, planktonic killing, CBD, first value of cell
Method: as §2

[8] = tested on: methicillin-resistant Staphylococcus epidermidis (MRSE; ATCC 35984); assay: Minimum inhibitory concentration (MIC) susceptibility assay, broth microdilution; type: cell-based; conditions: read-out: MRSE MIC
Method: as §1

[9] = tested on: MRSA-2; assay: Mechanistic investigations with metal(II)-cations (MIC assay with 200 μM metal salt); type: cell-based, Staphylococcus aureus; conditions: MRSA-2; for Fold Δ (MIC w/Cu^2+) / Fold Δ (MIC w/Fe^2+) / Fold Δ (MIC w/Zn^2+): change in antibacterial activity according to MIC values; for MIC: Staphylococcus aureus
Method: as §1

[10] = Table 3, at least three independent experiments, read-out: MRSA-2 MIC
[11] = Staphylococcus aureus, MRSA, Table 3, read-out: MRSA-2 MBC
[12] = Table 3, footnote c = lowest concentration tested, read-out: VRE MBC
[13] = Staphylococcus epidermidis, Table 3
[14] = 200 μM ammonium iron (II) sulfate hexahydrate, read-out: MIC w/Fe^2+
[15] = 200 μM copper (II) sulfate, read-out: MIC w/Cu^2+
[16] = 200 μM zinc (II) chloride, read-out: MIC w/Zn^2+
[17] = Staphylococcus epidermidis, Table 2, ATCC 35984

CCCc1ccc2c(Br)cc(Br)c(O)c2n1 [A-HQ-3]
MIC [1, 10]: 0.78 µM (≈ 0.269 µg/mL) | MIC ([2]; Table 3): 0.78 µM (≈ 0.269 µg/mL) | MBC [3]: 31.3 µM (≈ 10.8 µg/mL) | MBC [4, 11]: 125 µM (≈ 43.1 µg/mL) | MBC ([5]; Table 3, read-out: MRSE MBC): 9.38 µM (≈ 3.24 µg/mL) | % Haemolysis at 200 μM [6]: ≤1% | MBC [7, 12]: 2 µM (≈ 0.69 µg/mL)

CCCc1ccc2c(I)cc(I)c(O)c2n1 [A-HQ-4]
MIC [1, 10]: 1.56 µM (≈ 0.685 µg/mL) | MIC ([1]; read-out: MIC): 1.56 µM (≈ 0.685 µg/mL) | MIC [8, 13]: 1.17 µM (≈ 0.514 µg/mL) | MIC ([2]; Table 3): 0.39 µM (≈ 0.171 µg/mL) | MBC [4, 11]: 188 µM (≈ 82.5 µg/mL) | MBC ([5]; Table 3, read-out: MRSE MBC): 125 µM (≈ 54.9 µg/mL) | % Haemolysis at 200 μM [6]: ≤1% | MBC [7, 12]: 7.8 µM (≈ 3.42 µg/mL) | Fold Δ (MIC w/Cu^2+) [9]: +8 fold | Fold Δ (MIC w/Fe^2+) [9]: +64 fold | Fold Δ (MIC w/Zn^2+) [9]: −8 fold | MIC [9, 14]: > 100 µM | MIC [9, 15]: 12.5 µM | MIC [9, 16]: 0.2 µM

CC(C)Cc1ccc2c(Br)cc(Br)c(O)c2n1 [A-HQ-5]
MIC [1, 10]: 0.78 µM (≈ 0.28 µg/mL) | MIC ([2]; Table 3): 100 µM (≈ 35.9 µg/mL) | MBC [3]: 31.3 µM (≈ 11.2 µg/mL) | % Haemolysis at 200 μM [6]: 12.3%

Oc1c(Br)cc(Br)c2ccc(CCc3ccc(Br)cc3)nc12 [A-HQ-7]
MIC [1, 10]: 9.38 µM (≈ 4.56 µg/mL) | MIC ([1]; read-out: MIC): 9.38 µM (≈ 4.56 µg/mL) | MIC [8, 13]: 1.17 µM (≈ 0.569 µg/mL) | MIC ([2]; Table 3): 2.35 µM (≈ 1.14 µg/mL) | MBC [4, 11]: 375 µM (≈ 182 µg/mL) | MBC ([5]; Table 3, read-out: MRSE MBC): 250 µM (≈ 122 µg/mL) | % Haemolysis at 200 μM [6]: ≤1% | MBC [7, 12]: 9.38 µM (≈ 4.56 µg/mL) | Fold Δ (MIC w/Cu^2+) [9]: +11 fold | Fold Δ (MIC w/Fe^2+) [9]: +11 fold | Fold Δ (MIC w/Zn^2+) [9]: −8 fold | MIC [9, 14]: > 100 µM | MIC [9, 15]: > 100 µM | MIC [9, 16]: 1.17 µM

O=Cc1ccc2c(Br)cc(Br)c(O)c2n1 [Compound 2, 5,7-dibromo-8-hydroxyquinoline-2-carbaldehyde]
melting point: 154 to 156 °C

CCCCCCCCCC(=O)N[C@@H](Cc1c[nH]c2ccccc12)C(=O)N[C@H](CC(N)=O)C(=O)N[C@@H](CC(=O)O)C(=O)N[C@@H]1C(=O)NCC(=O)N[C@@H](CCCN)C(=O)N[C@@H](CC(=O)O)C(=O)N[C@H](C)C(=O)N[C@@H](CC(=O)O)C(=O)NCC(=O)N[C@H](CO)C(=O)N[C@@H]([C@H](C)CC(=O)O)C(=O)N[C@@H](CC(=O)c2ccccc2N)C(=O)O[C@@H]1C [Daptomycin, reference compound]
MIC [8, 17]: 12.5 µM (≈ 20.3 µg/mL) | MIC ([8]; Table 3): 12.5 µM (≈ 20.3 µg/mL) | MBC [3]: 125 µM (≈ 203 µg/mL) | MRSA BAA-1707 MBEC ([3]; biofilm eradication, second value of cell): unable to eradicate | MBC [4, 11]: 62.5 µM (≈ 101 µg/mL) | MBC ([4]; Table 2, read-out: MRSA-2 Clinical Isolate MBC): 62.5 µM (≈ 101 µg/mL) | % Haemolysis at 200 μM [6]: 1.7%

Oc1c(Br)cc(Br)c2ccc(CNc3ccccc3)nc12 [HQ-3]
MIC ([1]; Table 2, 2 to 6 independent experiments, read-out: MRSA-2 MIC): 0.78 µM (≈ 0.318 µg/mL) | MIC ([1]; read-out: MIC): 1.13 µM (≈ 0.461 µg/mL) | MIC ([8]; Staphylococcus epidermidis, 18 h, Table 2, ATCC 35984): 0.15 to 0.3 µM (≈ 0.0612 to 0.122 µg/mL) | MIC [8, 17]: 0.15 µM (≈ 0.0612 µg/mL) | MIC ([2]; 18 h, Table 2, ATCC 700221): 0.39 to 0.78 µM (≈ 0.159 to 0.318 µg/mL) | MIC ([2]; Table 2, ATCC 700221): 0.78 µM (≈ 0.318 µg/mL) | MBC [3]: 62.5 µM (≈ 25.5 µg/mL) | MBC ([4]; Staphylococcus aureus, MRSA, Table 2, read-out: MRSA-2 Clinical Isolate MBC): 125 µM (≈ 51 µg/mL) | MRSA-2 MBEC ([4]; Table 3, biofilm eradication, second value of MBC/MBEC cell): equipotent biofilm eradication activities | MBC ([5]; Table 2, read-out: MRSE ATCC 35984 MBC): 7.8 µM (≈ 3.18 µg/mL) | MBC ([7]; Table 2, read-out: VRE ATCC 700221 MBC): 7.8 µM (≈ 3.18 µg/mL)

N#Cc1ccc2c(Br)cc(Br)c(O)c2n1 [HQ-8, 5,7-dibromo-8-hydroxyquinoline-2-carbonitrile]
melting point: 172 to 174 °C
